# Results published in patent publication US7312249B2, “Vitamin D analogues” (Galderma Research & Development, priority 2002, dated 2007).
# pIC50: −log10 of the molar value.
# Tests used:
# Assay type in all cases: cell-based
# human VDR receptor = target: T1, human VDR receptor (Homo sapiens, UniProt P11473); assay: VDR agonist activity, co-transfection of HeLa cells with human VDR expression vector and reporter plasmid p240Hase-CAT; conditions: CAT reporter (rat 24-hydroxylase promoter), 18 hours of treatment
# T1 construct: expressed in transfected cells; host or cells: HeLa
# T1 sequence (P11473 1-427): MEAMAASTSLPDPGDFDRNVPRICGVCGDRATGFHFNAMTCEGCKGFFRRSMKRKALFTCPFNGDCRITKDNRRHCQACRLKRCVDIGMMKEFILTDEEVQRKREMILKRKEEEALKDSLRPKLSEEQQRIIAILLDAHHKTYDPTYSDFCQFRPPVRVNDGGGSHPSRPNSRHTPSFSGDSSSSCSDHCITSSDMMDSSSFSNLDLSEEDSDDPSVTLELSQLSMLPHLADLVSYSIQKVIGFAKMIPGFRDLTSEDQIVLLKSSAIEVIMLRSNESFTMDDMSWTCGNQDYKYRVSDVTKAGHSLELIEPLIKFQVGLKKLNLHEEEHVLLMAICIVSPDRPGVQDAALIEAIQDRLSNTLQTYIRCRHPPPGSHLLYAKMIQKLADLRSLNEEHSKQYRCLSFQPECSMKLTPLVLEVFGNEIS
# Protocol: By way of example, the VDR agonist activity may be tested on the HeLa cell line, by co-transfecting a human VDR receptor expression vector and the reporter plasmid p240Hase-CAT. The agonist activity may also be characterized in this co-transfection system by the determination of the dose necessary to reach 50% of the maximum activity of the product (AC50).
# 18 hours after co-transfection, the compound to be tested is added to the medium. After 18 hours of treatment, the assay of the CAT activity of the cellular lysates is carried out by an ELISA test (Enzyme Linked Immuno Sorbent Assay, marketed by Roche Molecular Biochemicals). The agonist activity may be characterized in this co-transfection system by determining the dose required to reach 50% of the maximum activity of the compound tested (AC50).
# [1] = test system: normal human keratinocytes; assay: Activity on the proliferation of human keratinocytes (BrdU incorporation); conditions: Keratinocyte, 120 h, 5 days of culture, read-out: IC50 - proliferation of the KHNs
# Protocol: The biological properties which are similar to vitamin D may also be measured by the capacity of the product to inhibit the proliferation of normal human keratinocytes (NHK in culture). The product is added to NHKs cultured under conditions promoting the proliferative state. The product is left in contact with the cells for 5 days. The number of proliferative cells is measured by incorporation of bromodeoxyuridine (BRdU) into DNA. The protocol for this test and the results obtained with the compounds according to the invention are described in Example 8 of the present application.
# The method used is the following: normal human keratinocytes are inoculated at low density into a 24-well plate. After 4 hours, the compounds to be tested are added to the culture medium. After 5 days of culture, the proliferation of the kerátinocytes is determined by incorporating 5-bromo-2′-deoxyuridine (BrdU) into the DNA. The quantity of BrdU incorporated is then measured using the ELISA test (Enzyme Linked Immuno Sorbent Assay, marketed by Roche Molecular Biochemicals).
# HL60 cells = assay: Activity on the differentiation of HL60 cells (NBT reduction); conditions: Homo sapiens, HL-60, 96 h, 4 days of culture, NBT-positive cells counted
# Excerpt: The biological properties analogous to vitamin D may also be measured by the capacity of the product to induce differentiation of promyelocytic leukaemia cells HL60. The protocol and the results obtained with the compounds according to the invention are described in Example 6 of the present application.
# Calcitriol induces the differentiation of promyelocytic leukaemia cells (HL60) into monocytes/macrophages. This differentiation-inducing effect is a well characterized marker for cellular vitamin D. One of the most important anti-microbial products of macrophages is hydrogen peroxide, which may be analyzed experimentally by the reduction of NBT (Nitroblue Tetrazolium).
# The method used is the following: the HL60 cells are inoculated into 6-well plates and then treated immediately with a test compound. After 4 days of culture, the cells are incubated with phorbol TPA ester and NBT for a short period and the differentiated cells, that is to say which are positive to NBT are counted.
Compound,AC50 (human VDR receptor) [nM],pIC50 [1],AC50 (HL60 cells) [nM]
"CCC(O)(CC)COc1ccc(CCCc2ccc(CO)c(CO)c2)cc1C [Compound of Example 4, (4-{3-(4-(2-Ethyl-2-hydroxy-butoxy)-3-methyl-phenyl]-propyl)-2-hydroxymethyl-phenyl)-methanol]",> 3000,,
"Cc1cc(CCCc2ccc(CO)c(CO)c2)ccc1OCC(O)C(C)(C)C (stereo not drawn) [Compound of Example 2, 1-{4-[3-(3,4-Bis-hydroxymethyl-phenyl)-propyl]-2-methyl-phenoxy}-3,3-dimethyl-butan-2-ol]",172,6.85,2500
"CCc1cc(CCCc2ccc(CO)c(CO)c2)ccc1OCC(O)C(C)(C)C (stereo not drawn) [Compound of Example 1, 1-{4-[3-(3,4-Bis-hydroxymethyl-phenyl)-propyl]-2-ethyl-phenoxy}-3,3-dimethyl-butan-2-ol]",40,6.82,312
"CCc1cc(CCCc2ccc(CO)c(CO)c2)ccc1OCC(O)(CC)CC [Compound of Example 3, (4-{3-(3-Ethyl-4-(2-ethyl-2-hydroxy-butoxy)-phenyl]-propyl}-2-hydroxymethyl-phenyl)-methanol]",1210,,
"C=C1/C(=C\C=C2/CCC[C@]3(C)[C@@H]([C@H](C)CCCC(C)(C)O)CC[C@@H]23)C[C@@H](O)C[C@@H]1O [Calcitriol, 1,25-dihydroxyvitamin D3, reference compound]",,,10.7
